Measurements published in ChEMBL document CHEMBL5291721, “A preclinical secondary pharmacology resource illuminates target-adverse drug reaction associations of marketed drugs” (Nat Commun, 2023).

Key:
[1] = molecular target: T1, Alpha-2A adrenergic receptor (Homo sapiens, UniProt P08913); type: functional, cell-based
T1 sequence (P08913 whole entry): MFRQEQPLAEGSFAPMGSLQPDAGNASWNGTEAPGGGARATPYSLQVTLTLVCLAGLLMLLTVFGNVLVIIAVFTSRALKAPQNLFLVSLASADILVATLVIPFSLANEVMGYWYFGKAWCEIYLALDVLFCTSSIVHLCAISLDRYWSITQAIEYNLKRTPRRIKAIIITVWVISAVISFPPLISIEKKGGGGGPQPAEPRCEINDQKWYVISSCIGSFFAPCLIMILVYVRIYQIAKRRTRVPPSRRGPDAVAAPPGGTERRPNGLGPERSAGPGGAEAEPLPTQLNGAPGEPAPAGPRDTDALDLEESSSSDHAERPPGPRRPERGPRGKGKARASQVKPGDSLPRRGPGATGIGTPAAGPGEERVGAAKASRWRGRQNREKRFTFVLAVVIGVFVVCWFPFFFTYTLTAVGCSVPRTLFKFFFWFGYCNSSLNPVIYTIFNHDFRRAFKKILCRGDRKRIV

[2] = molecular target: T2, Prostaglandin G/H synthase 1 (Rattus norvegicus, UniProt Q63921); type: functional
T2 sequence (Q63921 whole entry): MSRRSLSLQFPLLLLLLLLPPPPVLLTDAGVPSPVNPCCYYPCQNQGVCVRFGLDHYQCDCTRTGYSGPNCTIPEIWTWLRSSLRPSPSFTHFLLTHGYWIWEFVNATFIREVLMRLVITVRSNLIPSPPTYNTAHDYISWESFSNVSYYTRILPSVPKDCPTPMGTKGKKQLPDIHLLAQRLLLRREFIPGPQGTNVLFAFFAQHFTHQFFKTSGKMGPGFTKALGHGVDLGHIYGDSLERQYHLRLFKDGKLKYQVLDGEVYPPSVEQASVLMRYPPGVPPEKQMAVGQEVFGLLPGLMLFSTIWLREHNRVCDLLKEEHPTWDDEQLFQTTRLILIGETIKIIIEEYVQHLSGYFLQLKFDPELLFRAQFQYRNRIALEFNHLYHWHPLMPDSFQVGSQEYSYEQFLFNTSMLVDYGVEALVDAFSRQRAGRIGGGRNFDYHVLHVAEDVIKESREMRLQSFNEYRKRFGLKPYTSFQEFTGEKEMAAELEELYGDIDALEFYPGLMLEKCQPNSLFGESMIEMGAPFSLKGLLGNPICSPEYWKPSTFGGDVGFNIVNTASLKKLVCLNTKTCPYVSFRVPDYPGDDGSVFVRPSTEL

[3] = molecular target: Delta-type opioid receptor (Homo sapiens, UniProt P41143)
[4] = molecular target: T1, Alpha-2A adrenergic receptor; type: functional, cell-based; remark: listed apart in the source
[5] = molecular target: T3, Muscarinic acetylcholine receptor M2 (Homo sapiens, UniProt P08172); type: functional, cell-based
T3 sequence (P08172 whole entry): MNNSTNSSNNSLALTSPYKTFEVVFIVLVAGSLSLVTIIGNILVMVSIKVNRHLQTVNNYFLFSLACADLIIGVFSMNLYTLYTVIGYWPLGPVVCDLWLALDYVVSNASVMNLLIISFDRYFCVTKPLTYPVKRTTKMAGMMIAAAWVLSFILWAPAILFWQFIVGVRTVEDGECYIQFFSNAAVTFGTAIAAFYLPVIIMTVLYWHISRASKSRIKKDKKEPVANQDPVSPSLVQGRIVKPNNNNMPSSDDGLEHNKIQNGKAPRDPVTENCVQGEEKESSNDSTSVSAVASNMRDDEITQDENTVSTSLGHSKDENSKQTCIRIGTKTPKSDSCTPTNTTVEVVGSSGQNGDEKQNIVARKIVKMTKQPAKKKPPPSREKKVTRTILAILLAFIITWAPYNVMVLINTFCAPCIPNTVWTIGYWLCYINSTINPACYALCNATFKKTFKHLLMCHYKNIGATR

[6] = molecular target: T4, Muscarinic acetylcholine receptor M1 (Homo sapiens, UniProt P11229); type: functional
T4 sequence (P11229 whole entry): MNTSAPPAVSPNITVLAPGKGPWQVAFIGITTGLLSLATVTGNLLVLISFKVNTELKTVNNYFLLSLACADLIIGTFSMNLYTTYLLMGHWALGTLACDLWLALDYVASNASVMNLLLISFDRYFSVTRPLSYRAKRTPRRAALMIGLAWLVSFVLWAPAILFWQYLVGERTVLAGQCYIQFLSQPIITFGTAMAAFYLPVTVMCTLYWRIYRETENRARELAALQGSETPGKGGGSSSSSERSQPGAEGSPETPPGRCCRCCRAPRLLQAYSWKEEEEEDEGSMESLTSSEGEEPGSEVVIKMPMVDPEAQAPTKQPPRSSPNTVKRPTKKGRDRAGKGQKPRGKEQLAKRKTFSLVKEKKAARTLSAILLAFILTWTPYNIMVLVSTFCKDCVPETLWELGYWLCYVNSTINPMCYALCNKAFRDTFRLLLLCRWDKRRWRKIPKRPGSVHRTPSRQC

[7] = molecular target: 3',5'-cyclic-AMP phosphodiesterase 4D (Homo sapiens, UniProt Q08499); type: functional
Further: assay procedure not described here.

Sequence of 3',5'-cyclic-AMP phosphodiesterase 4D (Q08499 whole entry): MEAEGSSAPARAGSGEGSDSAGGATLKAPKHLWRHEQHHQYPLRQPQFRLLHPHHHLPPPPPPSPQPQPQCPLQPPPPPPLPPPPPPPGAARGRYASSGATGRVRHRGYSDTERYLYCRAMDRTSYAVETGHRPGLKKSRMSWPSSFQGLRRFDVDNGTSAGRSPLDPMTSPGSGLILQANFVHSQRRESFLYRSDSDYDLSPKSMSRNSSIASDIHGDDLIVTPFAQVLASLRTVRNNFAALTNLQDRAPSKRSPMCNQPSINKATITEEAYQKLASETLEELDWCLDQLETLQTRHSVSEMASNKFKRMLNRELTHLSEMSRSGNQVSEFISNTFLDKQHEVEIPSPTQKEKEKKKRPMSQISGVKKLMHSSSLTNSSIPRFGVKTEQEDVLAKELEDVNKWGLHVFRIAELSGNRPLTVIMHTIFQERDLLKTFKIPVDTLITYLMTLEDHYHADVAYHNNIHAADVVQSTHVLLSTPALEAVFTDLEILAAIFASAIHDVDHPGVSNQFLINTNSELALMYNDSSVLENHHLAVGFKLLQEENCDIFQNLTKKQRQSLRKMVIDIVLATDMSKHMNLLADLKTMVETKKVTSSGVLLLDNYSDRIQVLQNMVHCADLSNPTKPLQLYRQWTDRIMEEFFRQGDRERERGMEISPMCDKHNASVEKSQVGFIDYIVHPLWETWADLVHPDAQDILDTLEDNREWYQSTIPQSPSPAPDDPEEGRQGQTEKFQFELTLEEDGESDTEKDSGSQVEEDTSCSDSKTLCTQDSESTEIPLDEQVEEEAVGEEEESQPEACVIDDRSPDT
Sequence of Delta-type opioid receptor (P41143 whole entry): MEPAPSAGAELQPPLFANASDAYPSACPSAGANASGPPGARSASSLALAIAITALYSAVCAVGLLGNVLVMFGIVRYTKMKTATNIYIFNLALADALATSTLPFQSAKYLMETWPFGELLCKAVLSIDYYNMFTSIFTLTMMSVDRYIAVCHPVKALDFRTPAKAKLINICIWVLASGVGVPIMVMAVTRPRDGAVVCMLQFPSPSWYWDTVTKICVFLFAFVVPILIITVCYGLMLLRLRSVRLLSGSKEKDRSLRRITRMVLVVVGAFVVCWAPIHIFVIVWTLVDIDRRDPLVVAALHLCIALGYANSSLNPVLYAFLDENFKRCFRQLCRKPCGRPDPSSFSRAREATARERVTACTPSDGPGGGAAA

Row | Compound | AC50 [1] | AC50 [2] | AC50 [3] | AC50 [4] | AC50 [5] | AC50 [6] | AC50 [7]
1 | CCCN(CCc1cccs1)[C@H]1CCc2c(O)cccc2C1 [ROTIGOTINE] | 3.7 µM | > 30 µM | 25 µM | > 10 µM | > 10 µM | 25 µM | > 30 µM
2 | CCc1oc2ccccc2c1C(=O)c1cc(Br)c(O)c(Br)c1 [BENZBROMARONE] | > 30 µM | > 30 µM | > 30 µM | 3.74 µM | 14 µM | – | –
3 | Clc1cccc(Cl)c1N=C1NCCN1 [CLONIDINE] | – | > 30 µM | > 30 µM | – | > 10 µM | – | > 30 µM
4 | NC(=O)c1ncn([C@@H]2O[C@H](CO)[C@@H](O)[C@H]2O)n1 [RIBAVIRIN] | > 10 µM | > 10 µM | > 30 µM | > 10 µM | > 10 µM | – | > 30 µM
5 | CC[C@@H](CO)NC(=O)[C@@H]1C=C2c3cccc4[nH]cc(c34)C[C@H]2N(C)C1 [METHYLERGONOVINE] | > 30 µM | > 30 µM | > 30 µM | 17 µM | > 30 µM | – | > 30 µM
6 | CC(C)N(CCCCOCC(=O)NS(C)(=O)=O)c1cnc(-c2ccccc2)c(-c2ccccc2)n1 [SELEXIPAG] | > 30 µM | > 30 µM | 25 µM | > 30 µM | > 30 µM | > 30 µM | 4.81 µM
7 | [H]/N=C(\N/C(=N/[H])NCCCCCCNC(=N)NC(=N)Nc1ccc(Cl)cc1)Nc1ccc(Cl)cc1 [CHLORHEXIDINE] | > 30 µM | > 10 µM | > 10 µM | 4.34 µM | – | > 10 µM | > 10 µM
8 | CC(C)C[C@H](CN)CC(=O)O [PREGABALIN] | > 30 µM | > 30 µM | > 30 µM | > 30 µM | > 30 µM | > 30 µM | > 30 µM
9 | CNCCC=C1c2ccccc2CCc2ccccc21 [NORTRIPTYLINE] | – | > 30 µM | > 30 µM | – | > 30 µM | – | 7.5 µM
10 | Cc1cnc(NC(=O)C2=C(O)c3ccccc3S(=O)(=O)N2C)s1 [MELOXICAM] | > 10 µM | > 30 µM | > 10 µM | > 10 µM | > 10 µM | – | > 10 µM
11 | O=C1CN2Cc3c(ccc(Cl)c3Cl)N=C2N1 [ANAGRELIDE] | > 10 µM | > 30 µM | > 30 µM | > 10 µM | > 10 µM | > 10 µM | > 30 µM
12 | CC[C@H]1OC(=O)[C@H](C)[C@@H](O[C@H]2C[C@@](C)(OC)[C@@H](O)[C@H](C)O2)[C@H](C)[C@@H](O[C@@H]2O[C@H](C)C[C@H](N(C)C)[C@H]2O)[C@](C)(O)C[C@@H](C)/C(=N\OCOCCOC)[C@H](C)[C@@H](O)[C@]1(C)O [ROXITHROMYCIN] | > 30 µM | > 30 µM | > 30 µM | > 30 µM | > 30 µM | – | > 30 µM
13 | CC(=O)S[C@@H]1CC2=CC(=O)CC[C@]2(C)[C@H]2CC[C@@]3(C)[C@@H](CC[C@@]34CCC(=O)O4)[C@H]12 [SPIRONOLACTONE] | > 30 µM | > 30 µM | > 30 µM | > 30 µM | > 30 µM | – | > 30 µM
14 | COC(=O)[C@H](c1ccccc1Cl)N1CCc2sccc2C1 [CLOPIDOGREL] | > 30 µM | > 30 µM | > 30 µM | 11 µM | > 30 µM | – | > 30 µM
15 | Nc1nc(O)c2ncn(COC(CO)CO)c2n1 [GANCICLOVIR] | > 30 µM | > 30 µM | > 30 µM | > 30 µM | > 30 µM | – | > 30 µM
16 | CNCC[C@H](Oc1cccc2ccccc12)c1cccs1 [DULOXETINE] | > 10 µM | > 30 µM | > 30 µM | > 10 µM | > 10 µM | > 10 µM | –
17 | CN1CCN(CCCN2c3ccccc3Sc3ccc(S(=O)(=O)N(C)C)cc32)CC1 [THIOPROPERAZINE] | > 30 µM | – | 29 µM | > 30 µM | > 30 µM | 12 µM | 13 µM
18 | CN1C[C@H](C(=O)N[C@]2(C)O[C@@]3(O)[C@@H]4CCCN4C(=O)[C@H](Cc4ccccc4)N3C2=O)C[C@@H]2c3cccc4[nH]cc(c34)C[C@H]21 [DIHYDROERGOTAMINE] | – | > 30 µM | > 30 µM | – | > 10 µM | – | 6.7 µM
19 | CNCC[C@@H](Oc1ccccc1C)c1ccccc1 [ATOMOXETINE] | – | > 30 µM | > 30 µM | – | – | – | > 30 µM
20 | Cn1c(=O)c2[nH]cnc2n(C)c1=O [THEOPHYLLINE] | > 10 µM | > 30 µM | > 30 µM | > 10 µM | > 10 µM | – | –
21 | O=C1NC(=O)C(c2ccccc2)(c2ccccc2)N1 [PHENYTOIN] | > 30 µM | > 30 µM | > 30 µM | > 30 µM | > 30 µM | – | > 30 µM
22 | CC(/C=C1\SC(=S)N(CC(=O)O)C1=O)=C\c1ccccc1 | > 30 µM | > 30 µM | 9 µM | > 30 µM | > 30 µM | – | –
23 | CC1(C)S[C@@H]2[C@H](NC(=O)[C@H](N)c3ccc(O)cc3)C(=O)N2[C@H]1C(=O)O [AMOXICILLIN] | > 30 µM | > 30 µM | > 30 µM | > 30 µM | > 30 µM | – | > 30 µM
24 | COc1ccnc(C[S+]([O-])c2nc3ccc(OC(F)F)cc3[nH]2)c1OC (configuration not stated) [PANTOPRAZOLE] | > 10 µM | > 30 µM | > 30 µM | > 10 µM | > 10 µM | – | > 30 µM
25 | COc1ccc(Cc2nccc3cc(OC)c(OC)cc23)cc1OC [PAPAVERINE] | > 30 µM | > 30 µM | – | > 30 µM | > 30 µM | – | –
26 | CNC[C@H](O)c1cccc(O)c1 [PHENYLEPHRINE] | – | > 30 µM | > 10 µM | – | > 10 µM | > 10 µM | > 30 µM
27 | O=C(Nc1c(Cl)cncc1Cl)c1ccc(OC(F)F)c(OCC2CC2)c1 [ROFLUMILAST] | > 30 µM | > 30 µM | – | > 30 µM | > 30 µM | > 30 µM | –
28 | CC1(C)O[C@@H]2C[C@H]3[C@@H]4C[C@H](F)C5=CC(=O)C=C[C@]5(C)[C@H]4[C@@H](O)C[C@]3(C)[C@]2(C(=O)CO)O1 [FLUNISOLIDE] | > 30 µM | > 30 µM | > 30 µM | 2 µM | > 30 µM | – | > 30 µM
29 | CCCCNc1ccc(C(=O)OCCN(C)C)cc1 [TETRACAINE] | > 10 µM | > 30 µM | > 10 µM | > 10 µM | > 10 µM | – | > 30 µM
